Consider 5 compounds from patent publication US20190117596A1 (WAYNE STATE UNIVERSITY, priority 2016, published 2019).

Assay [1] deals with S1PR3 expression. The experiment in a line: TGF-β-stimulated S1PR3 up-regulation in HBEC2-KT cells (qPCR). The class given is cell-based, human. The conditions noted are these: 30 min pretreatment, SB-431542 10 μM, SIS3 2 μM, SB-203580 50 nM, BAY11-7085 10 μM, JNK inhibitor II 10 μM, TGF-β 4 h. How it is done: FIGS. 4A-4H. TGF-β/SMAD3 signaling axis up-regulates S1PR3. (4A), HBEC2-KT cells were treated with TGF-β (1 ng/ml) for various times. mRNA levels of S1P receptors were measured by qPCR analysis. Data are mean±S.D. of triplicate determinations. *, p<0.05, Student's t test. (4B), protein levels of S1PR3 in TGF-β (1 ng/ml)-treated HBEC2-KT cells. Lower panel, Western blot intensity was quantitated by National Institutes of Health ImageJ. Data (normalized to actin) are mean±S.D. of triplicate determinations. * and **, p<0.05 and 0.01, respectively, Student's t test. (4C), CHO cells were transduced with adenoviral particles (multiplicity of infection of 200) carrying S1PR1, S1PR2, or S1PR3 vector for 20 h as previously described (8). Extracts were blotted with antibody against S1PR3 (Cayman), S1PR2 (Cayman), or S1PR1 (E49) (8). […] Medium was quantitated for S1P, ceramide (Cer), and sphingomyelin (SPM) by LC-MS/MS (29, 46). […] S1PR3 levels were measured by qPCR, following TGF-β treatment (4 h). […] Activation of p38, JNK, and NFκB was measured by Western blotting with phospho-p38 (P-p38), phospho-JNK (P-p54^JNK and P-p46^JNK), and phospho-IκBα (p-IκBα). […]
Real-time PCR Analysis. […] For real-time PCR quantitation, 50 ng of reversely transcribed cDNAs were amplified with the ABI 7500 system (Applied Biosystems) in the presence of TaqMan DNA polymerase. […]

For assay [2], the system named is S1PR3 expression. The experiment in a line: S1PR3 up-regulation in K-Ras G12V-expressing HEK293 cells (qPCR). The assay is classed as cell-based. Particulars: HEK293 pBabe-K-Ras G12V, anti-TGF-β 10 μg/ml, SB-431542 10 μM, SIS3 2 μM, 37° C., 24 h. How it is done: FIGS. 3A-3F. TGF-β/SMAD3 signaling contributes to oncogenic K-Ras mutant-stimulated S1PR3 up-regulation. (3A), P, potential SMAD3 binding sites in S1PR3 promoter. 0, transcription initiation site. (3B-3D), HEK293 cells were stably transfected with pBabe-K-Ras^G12V or pBabe control vector. Levels of total cellular K-Ras (3B), S1PRs (3C), and TGF-β (3D) were measured by qPCR analysis. (3E), HEK293 cells transfected with pBabe-K-Ras^G12V or pBabe control vector were incubated with anti-TGF-β (Cell Signaling, antibody number 3711, 10 μg/ml) or irrelevant normal rabbit IgG (10 μg/ml) at 37° C. for 24 h. Levels of S1PR3 were quantitated by qPCR. (3F), HEK293 cells transfected with pBabe-K-Ras^G12V or pBabe control vector were treated with or without SB-431542 (SB4) (inhibitor of TGF-β receptor 1, 10 μM) or SIS3 (inhibitor of SMAD3, 2 μM) at 37° C. for 24 h. Levels of S1PR3 were quantitated by qPCR. **, p<0.01, n=3, Student's t test.
(§1) Real-time PCR Analysis. Total RNA was isolated using TRIzol reagent (Invitrogen) and was reverse-transcribed with an oligo(dT) primer (Promega) by Moloney Murine Leukemia Virus (M-MLV) Reverse Transcriptase (Promega) for first-strand cDNA synthesis. For real-time PCR quantitation, 50 ng of reversely transcribed cDNAs were amplified with the ABI 7500 system (Applied Biosystems) in the presence of TaqMan DNA polymerase. […]
A general note: In qPCR the cycle at which signal appears reflects the starting amount.

Assay [3] deals with Lewis lung carcinoma cells. The assay is described as follows: Subcutaneous Lewis lung carcinoma tumor growth in C57BL/6 mice. The assay is classed as in vivo, mouse. The conditions noted are these: s.c. LLC cells. How it is done:
(§2) FIGS. 7A-7E. Inhibition of S1PR3 diminishes lung carcinoma growth. (7A), C57BL/6 mice were subcutaneously inoculated with LLC cells (1×10^6 cells). 1 week later, mice were intraperitoneally administered with VPC23019 (1.5 mg/kg of body weight) or control vehicle every 3 days. (7B), S1PR1 and S1PR3 levels in Lewis lung carcinoma cells. -ve, PCR reactions were performed without cDNA. **, p<0.01, n=6, ANOVA. (7C), CHO cells were transduced with adenoviral particles carrying S1PR1, S1PR2, S1PR3, or pcDNA control vector. Cells were serum-starved for 24 h. […] ERK1/2 activation (p-ERK) was measured by Western blotting analysis. (7D), C57BL/6 mice were subcutaneously inoculated with LLC cells (1×10^6 cells). […] (7E), tumor weights were measured 24 days after implantation. **, p<0.01, n=6, ANOVA.
Tumor Growth and Lung Colonization in Mice. All animal procedures were performed according to the National Institutes of Health and institutional guidelines, and were approved by the Wayne State University Animal Use and Care Committee. For subcutaneous implantation, lung carcinoma cells were adjusted to 1×10^7 cells/ml. Mice were injected with 0.1 ml of cell suspension into the subcutaneous dorsa in the proximal midline. […] Tumor volume was measured in two dimensions using calipers, and volume was determined using the formula width 2×length×0.52 (49). […]

The subject of a further assay is lung adenocarcinoma. The experiment in a line: Lung adenocarcinoma in LSL-KRas G12D mouse model (Ad-Cre). The assay is classed as in vivo. The conditions noted are these: Ad-Cre injected mice; 10 mg/kg i.p. every two days; lungs analyzed 2 months later. Here is the method:
FIGS. 8A-AD. […] Mice were injected with or without Ad-Cre. Lungs were analyzed for adenocarcinoma 2 months later. (8A) LSL-KRas^G12D injected with Ad-Cre. (8B) LSL-KRas^G12D injected with Ad-Cre. […] (8C) LSL-KRas^G12D mice injected with Ad-Ctrl. (8D) wild-type C57BL/6 mice injected with Ad-Cre. Arrows, lung adenocarcinomas. Scale bar=[…].

Assay [4] deals with human lung adenocarcinoma cells exhibiting K-Ras G12D mutation. The assay is described as follows: Proliferation and colony formation of cultured lung adenocarcinoma cells. The class given is cell-based.
A further assay has as its target T1, S1PR1 (Homo sapiens, UniProt P21453).
T1 construct: expressed in transfected cells; host or cells: CHO cells, adenoviral transduction
The experiment in a line: S1P-stimulated ERK1/2 activation in CHO cells transduced with S1PR1 (Western blot p-ERK). The assay is classed as cell-based. Particulars: TY-52156 10 μM, 10 min, then S1P 200 nM. Here is the method:
as §2
(§3) Western Blotting Analysis. Protein extraction and Western blotting were performed as described (11). Briefly, cells were collected in ice-cold PBS using cell scrapers followed by centrifugation (500×g, 5 min). […] After centrifugation at 15,000×g for 20 min, supernatant was collected and protein concentration was measured using a bicinchoninic acid protein assay kit with BSA as standard. […]
A general note: Immunoblotting shows a protein as a band on a membrane.

The target of the next assay is T2, S1PR2 (Homo sapiens, UniProt O95136).
T2 construct: expressed in transfected cells; host or cells: CHO cells, adenoviral transduction
The assay is described as follows: S1P-stimulated ERK1/2 activation in CHO cells transduced with S1PR2 (Western blot p-ERK). The assay is classed as cell-based. The conditions noted are these: TY-52156 10 μM, 10 min, then S1P 200 nM. Here is the method: as §2, §3

Another assay has as its system IL-6 expression. The assay is described as follows: TGF-β-induced IL-6 expression in H1793 lung adenocarcinoma cells (qPCR). The conditions noted are these: CAY10444 10 μM. The assay is classed as cell-based, human. How it is done: FIGS. 14A-14E. S1P3 regulates the TGF-β-stimulated IL-6 expression. (14A) H1793 lung adenocarcinoma cells were pre-treated for 30 min with inhibitor of TGF-β receptor I (SB4, SB431542, 10 uM) or Smad3 (SIS3, 2 uM), followed by stimulating with TGF-β (1 ng/ml) for 4 hrs. Levels of IL-6 were analyzed by qPCR. […] The S1P-induced IL-6 expression is diminished when S1PR3 were knocked-down. (14E) HBEC2-KT normal lung epithelial cells were transduced with adenoviral particles carrying S1PR3 (Ad-S1PR3) or β-galactosidase (Ad-Ctrl, 200 m.o.i.) for overnight, followed by stimulating with or without S1P (200 nM, 4 hrs). mRNA levels of IL-6 were measured by qPCR analysis. Data are mean±SD from a representative experiment (n=3). Each experiment was repeated at least one time with similar results. Data are mean+S.D. (n=3). *, p<0.05; NS, non-statistic significance; t-test.
as §1

Structures are written as SMILES. “Also recorded” adds a separate entry of the source.

T2 sequence (O95136 whole entry, species assumed): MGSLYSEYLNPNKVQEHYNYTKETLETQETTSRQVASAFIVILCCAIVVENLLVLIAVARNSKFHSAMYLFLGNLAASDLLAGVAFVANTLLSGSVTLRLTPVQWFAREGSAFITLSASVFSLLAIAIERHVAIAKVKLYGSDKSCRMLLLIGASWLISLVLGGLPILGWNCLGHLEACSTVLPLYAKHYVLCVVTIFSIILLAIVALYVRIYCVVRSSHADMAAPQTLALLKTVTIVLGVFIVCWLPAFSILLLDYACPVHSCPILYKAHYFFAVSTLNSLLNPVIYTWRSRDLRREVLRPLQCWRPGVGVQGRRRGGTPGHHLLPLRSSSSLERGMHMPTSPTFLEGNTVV
T1 sequence (P21453 whole entry, species assumed): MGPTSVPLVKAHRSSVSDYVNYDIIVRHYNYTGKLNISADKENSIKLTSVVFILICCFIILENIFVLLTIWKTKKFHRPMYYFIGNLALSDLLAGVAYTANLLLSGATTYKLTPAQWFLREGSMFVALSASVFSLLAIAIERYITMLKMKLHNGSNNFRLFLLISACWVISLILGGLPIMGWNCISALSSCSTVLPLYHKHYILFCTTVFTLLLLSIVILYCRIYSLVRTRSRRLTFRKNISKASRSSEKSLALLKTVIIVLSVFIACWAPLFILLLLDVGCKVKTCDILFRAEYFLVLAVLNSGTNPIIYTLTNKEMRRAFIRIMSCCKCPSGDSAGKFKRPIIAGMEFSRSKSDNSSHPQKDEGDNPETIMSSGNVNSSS

As to `NC(=O)c1ccc(-c2nc(-c3ccc4c(c3)OCO4)c(-c3ccccn3)[nH]2)cc1` [SB-431542], the “TGF-β-stimulated S1PR3 up-regulation” value in the assay on S1PR3 expression [1] was “abrogated”. The “S1PR3 up-regulation in K-Ras G12V-expressing cells” value with S1PR3 expression [2] was “abrogated”.
With `CCCCCCCCc1cccc(NC(=O)[C@H](N)COP(=O)(O)O)c1` [VPC23019], in assay [3] (1.5 mg/kg intraperitoneally every 3 days from 1 week after inoculation, 1.5 mg/kg), the tumor growth entry is “significantly inhibited; also recorded: significantly diminished”.
As for `COc1cc2c(cc1OC)CN(C(=O)/C=C/c1c(-c3ccccc3)n(C)c3ncccc13)CC2` [SIS3], the “TGF-β-stimulated S1PR3 up-regulation” value in the assay on S1PR3 expression [1] is “abrogated”. The “S1PR3 up-regulation in K-Ras G12V-expressing cells” value in the assay with S1PR3 expression [2] is listed as “abrogated”.
As for `CC(C)(C)C(=O)/C(=N/c1ccc(Cl)cc1)NNc1ccc(Cl)cc1` [TY-52156, 1-(4-chlorophenylhydrazono)-1-(4-chlorophenylamino)-3,3-dimethyl-2-butanone], the “lung adenocarcinoma in LSL-KRas G12D mouse model” value with lung adenocarcinoma is listed as “significantly inhibits”. Further, the “growth of Lewis lung carcinoma (tumor volume, tumor weight 24 days after implantation)” value in assay [3] (10 mg/kg intraperitoneally every 2 days from 1 week after inoculation, 10 mg/kg) was “significantly suppressed; also recorded: significantly diminished”. Also, the “proliferation and colony formation” value in assay [4] was “effective in inhibiting”. Besides, the “S1P/S1PR1-stimulated ERK1/2 activation” value on S1PR1 was “had no effect”. In addition, the “S1P/S1PR2-stimulated ERK1/2 activation” value on S1PR2 is reported as “had no effect”.
As to `CCCCCCCCCCCC1N[C@H](C(=O)O)CS1` (some centres unmarked) [CAY10444], in the assay with IL-6 expression, the “TGF-β-induced IL-6 expression” value is “significantly diminished”.
